Assay results taken from ChEMBL document CHEMBL1126373, “HIV and reverse transcriptase inhibition by tannins” (Bioorg Med Chem Lett, 1992).

Key:
[1] = test system: Human immunodeficiency virus 1; test: Anti-HIV activity in cell culture assay expressed as IC50 values.; assay type: functional, organism-based; conditions: Human immunodeficiency virus 1
[2] = test system: Human immunodeficiency virus 1; test: Inhibition against HIV replication in cell culture at 20 ug/mL; assay type: functional; conditions: Human immunodeficiency virus 1
[3] = test system: Human immunodeficiency virus 1; test: Anti-HIV activity in cell culture assay expressed as EC50 values.; assay type: functional, organism-based; conditions: Human immunodeficiency virus 1
[4] = molecular target: Human immunodeficiency virus type 1 reverse transcriptase (Human immunodeficiency virus 1) (UniProt Q72547); test: Inhibition against HIV- reverse transcriptase in cell culture at 20 ug/mL
[5] = test system: Human immunodeficiency virus 1; test: Therapeutic index was determined; conditions: read-out: Therapeutic index

## O=C1O[C@H]2[C@H](O)[C@@H](OC(=O)c3cc(O)c(O)c4c3[C@@H]3C1=CC(=O)C(O)(O)C3(O)O4)[C@H](OC(=O)c1cc(O)c(O)c(O)c1)O[C@@H]2CO (stereo not given in full) [FUROSIN]
[1]
  IC50: 70 µM
[2]
  inhibition at 20 µg/mL: 33%
[3]
  EC50: 50 µM
[4]
  inhibition: 38%
[5]
  selectivity ratio: 1.4

## O=C(O)C1=C[C@@H](O)[C@@H](O)[C@H](OC(=O)c2cc(O)c(O)c(OC(=O)c3cc(O)c(O)c(O)c3)c2)C1
[1]
  IC50: 40 µM
[2]
  inhibition at 20 µg/mL: 60%
[3]
  EC50: 30 µM
[4]
  inhibition: 31%
[5]
  selectivity ratio: 1.3

## O=C(/C=C/c1ccc(O)c2c1[C@H](C(=O)O[C@H](Cc1ccc(O)c(O)c1)C(=O)O)[C@@H](c1ccc(O)c(O)c1)O2)O[C@H](Cc1ccc(O)c(O)c1)C(=O)O [MAGNESIUM LITHOSPERMATE B]
[1]
  IC50: > 25 µM
[2]
  inhibition at 20 µg/mL: 35%
[3]
  EC50: > 25 µM
[4]
  inhibition: 18%

## O=C(OC[C@H]1OC(O)[C@@](O)(COC(=O)c2cc(O)c(O)c(O)c2)[C@@H]1OC(=O)c1cc(O)c(O)c(O)c1)c1cc(O)c(O)c(O)c1 (stereo not given in full)
[1]
  IC50: 40 µM
[2]
  inhibition at 20 µg/mL: 30%
[3]
  EC50: 45 µM
[4]
  inhibition: 25%
[5]
  selectivity ratio: 0.9

## O=C(O[C@@H]1[C@@H](c2c(O)cc(O)c3c2O[C@H](c2ccc(O)c(O)c2)[C@H](OC(=O)c2cc(O)c(O)c(O)c2)C3)c2c(O)cc(O)c([C@H]3c4c(O)cc(O)cc4O[C@H](c4ccc(O)c(O)c4)[C@@H]3OC(=O)c3cc(O)c(O)c(O)c3)c2O[C@@H]1c1ccc(O)c(O)c1)c1cc(O)c(O)c(O)c1
[1]
  IC50: > 25 µM
[2]
  inhibition at 20 µg/mL: 47%
[3]
  EC50: 17 µM
[4]
  inhibition: 13%
[5]
  selectivity ratio: > 1.5

## O=C(O)C1=C[C@@H](O)[C@@H](O)[C@H](OC(=O)c2cc(O)c(O)c(O)c2)C1
[1]
  IC50: 25 µM
[2]
  inhibition at 20 µg/mL: 90%
[3]
  EC50: 18 µM
[4]
  inhibition: 0%
[5]
  selectivity ratio: 1.4

## O=C1OCC2OC(=O)c3cc(O)c(O)c(O)c3-c3c(O)c(O)c(O)c4c3C(=O)OC(C2OC(=O)c2cc(O)c(O)c(O)c2-c2c1cc(O)c(O)c2O)C1OC(=O)c2c-4c(O)c(O)c(O)c2[C@@H]1[C@@]1(O)O[C@@H](CO)[C@@H](O)[C@H]1O (stereo not given in full)
[1]
  IC50: 15 µM
[2]
  inhibition at 20 µg/mL: 35%
[3]
  EC50: 35 µM
[4]
  inhibition: 27%
[5]
  selectivity ratio: 0.4

## O=C(OC[C@H]1O[C@@H](OC(=O)c2cc(O)c(O)c(O)c2)[C@H](OC(=O)c2cc(O)c(O)c(O)c2)[C@@H](OC(=O)c2cc(O)c(O)c(O)c2)[C@@H]1OC(=O)c1cc(O)c(O)c(O)c1)c1cc(O)c(O)c(O)c1 (stereo in doubt; 11)
[4]
  inhibition: 0%

## O=C(O[C@@H]1O[C@H]2COC(=O)c3cc(O)c(O)c(O)c3-c3c(O)c(O)c(O)c(Oc4cc(C(=O)O[C@H]5O[C@H]6COC(=O)c7cc(O)c(O)c(O)c7-c7c(cc(O)c(O)c7O)C(=O)O[C@H]6[C@@H]6OC(=O)c7cc(O)c(O)c(O)c7-c7c(cc(O)c(O)c7O)C(=O)O[C@H]56)cc(O)c4O)c3C(=O)O[C@H]2[C@@H]2OC(=O)c3cc(O)c(O)c(O)c3-c3c(cc(O)c(O)c3O)C(=O)O[C@H]12)c1cc(O)c(O)c(O)c1
[1]
  IC50: 21 µM
[2]
  inhibition at 20 µg/mL: 38%
[3]
  EC50: 15 µM
[4]
  inhibition: 34%
[5]
  selectivity ratio: 1.4

## Oc1cc(O)c2c(c1)O[C@@]1(c3ccc(O)c(O)c3)Oc3cc(O)c4c(c3[C@@H]2[C@H]1O)O[C@H](c1ccc(O)c(O)c1)[C@H](O)[C@H]4c1c(O)cc(O)c2c1O[C@H](c1ccc(O)c(O)c1)[C@H](O)C2 [CINNAMTANNIN B1]
[1]
  IC50: > 25 µM
[2]
  inhibition at 20 µg/mL: 90%
[3]
  EC50: 21 µM
[4]
  inhibition: 13%
[5]
  selectivity ratio: > 1.2

## O=C1OCC2OC(=O)c3cc(O)c(O)c(O)c3-c3c(O)c(O)c(O)c4c3C(=O)OC(C2OC(=O)c2cc(O)c(O)c(O)c2-c2c1cc(O)c(O)c2O)C1OC(=O)c2c-4c(O)c(O)c(O)c2[C@H]1O (stereo not given in full)
[1]
  IC50: 15 µM
[2]
  inhibition at 20 µg/mL: 90%
[3]
  EC50: 16 µM
[4]
  inhibition: 45%
[5]
  selectivity ratio: 0.9

## O=C(OC[C@H]1OC(O)[C@@](O)(COC(=O)c2cc(O)c(O)c(O)c2)[C@@H]1O)c1cc(O)c(O)c(O)c1 (stereo not given in full) [HAMAMELITANNIN]
[1]
  IC50: 45 µM
[2]
  inhibition at 20 µg/mL: 40%
[3]
  EC50: 50 µM
[4]
  inhibition: 16%
[5]
  selectivity ratio: 0.9

## O=C(O[C@@H]1Cc2c(O)cc(O)cc2O[C@@H]1c1ccc(O)c(O)c1)c1cc(O)c(O)c(O)c1 [EPICATECHIN GALLATE]
[1]
  IC50: > 25 µM
[2]
  inhibition at 20 µg/mL: 40%
[3]
  EC50: > 25 µM
[4]
  inhibition: 5%

## O=C(OC[C@H]1O[C@@H](OC(=O)c2cc(O)c(O)c(O)c2)[C@H](OC(=O)c2cc(O)c(O)c(O)c2)[C@@H](OC(=O)c2cc(O)c(O)c(O)c2)[C@@H]1OC(=O)c1cc(O)c(O)c(O)c1)c1cc(O)c(O)c(O)c1 (stereo in doubt; 10)
[4]
  inhibition: 2%
